Measurements reported in PubChem BioAssay (NCI).
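The compound was tested at five concentrations on cells cultured in 96-well plates, with a 48-hour exposure period. Abbreviation: GI50, concentration required for 50% inhibition of growth. TGI denotes the concentration required for complete inhibition of growth.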

What was measured:
Experiment in all cases: inhibition of tumour cell growth, NCI panel, 48 h
HCT-116 colon = test system: HCT-116 colon
MCF7 breast = test system: MCF7 breast
MDA-MB-435 = test system: MDA-MB-435
MOLT-4 leukemia = test system: MOLT-4 leukemia
NCI-H226 lung = test system: NCI-H226 lung
NCI-H522 lung = test system: NCI-H522 lung
OVCAR-3 ovarian = test system: OVCAR-3 ovarian
SF-295 CNS = test system: SF-295 CNS
UACC-257 melanoma = test system: UACC-257 melanoma
UO-31 renal = test system: UO-31 renal

SMILES: CN(C)CCCN1c2ccc(O)cc2Sc2ccc(Cl)cc21
- TGI (HCT-116 colon): 20.1 µM
- TGI (MCF7 breast): 26.5 µM
- TGI (MDA-MB-435): 21.1 µM
- TGI (MOLT-4 leukemia): 17.5 µM
- TGI (NCI-H226 lung): 24.7 µM
- TGI (NCI-H522 lung): 25.3 µM
- TGI (OVCAR-3 ovarian): 24.5 µM
- TGI (SF-295 CNS): 29 µM
- TGI (UACC-257 melanoma): 4.14 µM
- TGI (UO-31 renal): 21.7 µM

SMILES: C=C1[C@@H](O)C[C@H]2C(C)(C)C[C@H](Cl)C[C@]2(C)[C@H]1C[C@H](O)[C@H]1CC(=O)NC1=O
- GI50 (HCT-116 colon): < 0.01 µM
- TGI (HCT-116 colon): 0.109 µM
- GI50 (MCF7 breast): < 0.01 µM
- TGI (MCF7 breast): 0.106 µM
- GI50 (MDA-MB-435): 0.016 µM
- TGI (MDA-MB-435): 0.312 µM
- GI50 (MOLT-4 leukemia): < 0.01 µM
- GI50 (NCI-H226 lung): 0.0218 µM
- TGI (NCI-H226 lung): 0.19 µM
- GI50 (NCI-H522 lung): < 0.01 µM
- TGI (NCI-H522 lung): 0.0293 µM
- GI50 (OVCAR-3 ovarian): 0.0191 µM
- TGI (OVCAR-3 ovarian): 0.289 µM
- GI50 (SF-295 CNS): < 0.0123 µM
- TGI (SF-295 CNS): 0.0748 µM
- GI50 (UACC-257 melanoma): 0.0193 µM
- TGI (UACC-257 melanoma): 0.122 µM
- GI50 (UO-31 renal): 0.0185 µM
- TGI (UO-31 renal): 0.212 µM

SMILES: CNC12C3C4C1C1C2C3C41C(=O)N[C@H](C(=O)N(C)[C@H](C[C@@H](OC(C)=O)c1nc(C(=O)N[C@@H](Cc2ccccc2)C[C@H](C)C(=O)OC)cs1)C(C)C)C1CC1 (some centres undefined)
- GI50 (HCT-116 colon): 0.215 µM
- TGI (HCT-116 colon): > 4.1 µM
- GI50 (MCF7 breast): 0.0405 µM
- TGI (MCF7 breast): > 15 µM
- GI50 (MDA-MB-435): 0.0467 µM
- TGI (MDA-MB-435): 0.32 µM
- GI50 (MOLT-4 leukemia): 0.467 µM
- TGI (MOLT-4 leukemia): > 13.6 µM
- GI50 (NCI-H226 lung): 1.73 µM
- TGI (NCI-H226 lung): > 14 µM
- GI50 (NCI-H522 lung): 0.041 µM
- TGI (NCI-H522 lung): 0.524 µM
- GI50 (OVCAR-3 ovarian): 0.0472 µM
- TGI (OVCAR-3 ovarian): 0.372 µM
- GI50 (SF-295 CNS): 0.343 µM
- TGI (SF-295 CNS): 1.31 µM
- GI50 (UACC-257 melanoma): 2.99 µM
- TGI (UACC-257 melanoma): > 15 µM
- GI50 (UO-31 renal): 2.25 µM
- TGI (UO-31 renal): > 15 µM

SMILES: CCOC(=O)Nc1ccc(C(=O)/C=C/c2ccccc2)cc1
- GI50 (HCT-116 colon): 3.31 µM
- TGI (HCT-116 colon): 11.4 µM
- GI50 (MCF7 breast): 3.14 µM
- TGI (MCF7 breast): 33.9 µM
- GI50 (MDA-MB-435): 5.13 µM
- TGI (MDA-MB-435): > 100 µM
- GI50 (MOLT-4 leukemia): 27.9 µM
- TGI (MOLT-4 leukemia): > 100 µM
- GI50 (NCI-H226 lung): 19.8 µM
- TGI (NCI-H226 lung): 68.6 µM
- GI50 (NCI-H522 lung): 20.9 µM
- TGI (NCI-H522 lung): 79.8 µM
- GI50 (OVCAR-3 ovarian): 18.9 µM
- TGI (OVCAR-3 ovarian): 75.3 µM
- GI50 (SF-295 CNS): 41.7 µM
- TGI (SF-295 CNS): > 100 µM
- GI50 (UACC-257 melanoma): 55 µM
- TGI (UACC-257 melanoma): > 100 µM
- GI50 (UO-31 renal): 26.9 µM
- TGI (UO-31 renal): > 100 µM

SMILES: COC(=O)C1=CO[C@@H](OC2OC(CO)C(O)C(O)C2O)[C@@H]2[C@H](C)[C@@H](O)[C@@H](O)[C@]12O (some centres undefined)
- TGI (HCT-116 colon): > 100 µM
- TGI (MCF7 breast): > 100 µM
- TGI (MDA-MB-435): > 100 µM
- TGI (MOLT-4 leukemia): > 100 µM
- TGI (NCI-H226 lung): > 100 µM
- TGI (NCI-H522 lung): > 100 µM
- TGI (OVCAR-3 ovarian): > 100 µM
- TGI (SF-295 CNS): > 100 µM
- TGI (UACC-257 melanoma): > 100 µM
- TGI (UO-31 renal): > 100 µM

SMILES: O=C1Nc2ccc(CN3CCOC3=O)cc2/C1=C/c1cc(CN2CCOCC2)c[nH]1
- GI50 (HCT-116 colon): 37.2 µM
- TGI (HCT-116 colon): > 100 µM
- GI50 (MCF7 breast): 24.1 µM
- TGI (MCF7 breast): > 91.9 µM
- GI50 (MDA-MB-435): 18.7 µM
- TGI (MDA-MB-435): > 100 µM
- GI50 (MOLT-4 leukemia): 28.5 µM
- TGI (MOLT-4 leukemia): 78.7 µM
- GI50 (NCI-H226 lung): 28.1 µM
- TGI (NCI-H226 lung): > 100 µM
- GI50 (NCI-H522 lung): 36.1 µM
- TGI (NCI-H522 lung): > 100 µM
- GI50 (OVCAR-3 ovarian): 47.6 µM
- TGI (OVCAR-3 ovarian): > 100 µM
- GI50 (SF-295 CNS): 2.16 µM
- TGI (SF-295 CNS): > 100 µM
- GI50 (UACC-257 melanoma): 52 µM
- TGI (UACC-257 melanoma): > 100 µM
- GI50 (UO-31 renal): 21.5 µM
- TGI (UO-31 renal): > 94.7 µM

SMILES: Cc1ccc(S(=O)(=O)NNC(C[N+](=O)[O-])c2ccccc2)cc1 (centres undefined)
- TGI (HCT-116 colon): > 100 µM
- TGI (MCF7 breast): 21.6 µM
- TGI (MDA-MB-435): 11.2 µM
- TGI (MOLT-4 leukemia): > 100 µM
- TGI (NCI-H226 lung): 90 µM
- TGI (NCI-H522 lung): 44.1 µM
- TGI (OVCAR-3 ovarian): 79.4 µM
- TGI (SF-295 CNS): 49.2 µM
- TGI (UACC-257 melanoma): 37.5 µM
- TGI (UO-31 renal): 48.6 µM

SMILES: CNC(C)[C@H]1CCC2C3CCC4C[C@@H](N(C)C(=O)c5ccccc5)CC[C@]4(C)C3CC[C@@]21C (some centres undefined)
- GI50 (HCT-116 colon): 0.409 µM
- TGI (HCT-116 colon): 1.73 µM
- GI50 (MCF7 breast): 0.94 µM
- TGI (MCF7 breast): 3.35 µM
- GI50 (MDA-MB-435): 0.632 µM
- TGI (MDA-MB-435): 2.42 µM
- GI50 (MOLT-4 leukemia): 1.02 µM
- TGI (MOLT-4 leukemia): 3.46 µM
- GI50 (NCI-H226 lung): 2.01 µM
- TGI (NCI-H226 lung): 12.9 µM
- GI50 (NCI-H522 lung): 2.32 µM
- TGI (NCI-H522 lung): 8.5 µM
- GI50 (OVCAR-3 ovarian): 1.22 µM
- TGI (OVCAR-3 ovarian): 3.99 µM
- GI50 (SF-295 CNS): 1.25 µM
- TGI (SF-295 CNS): 3.36 µM
- GI50 (UACC-257 melanoma): 2.19 µM
- TGI (UACC-257 melanoma): 5.53 µM
- GI50 (UO-31 renal): 0.794 µM
- TGI (UO-31 renal): 2.69 µM

SMILES: CCCC(=O)O[C@]1(C)CC[C@@H]2[C@H]3[C@@H]1[C@@H]1C/C(C)=C\CC[C@](C)(OC(=O)[C@@H]2C)[C@H]3O1
- GI50 (HCT-116 colon): 18.8 µM
- TGI (HCT-116 colon): 38.2 µM
- GI50 (MCF7 breast): 29.1 µM
- TGI (MCF7 breast): > 100 µM
- GI50 (MDA-MB-435): 32.6 µM
- TGI (MDA-MB-435): > 100 µM
- GI50 (MOLT-4 leukemia): 14.7 µM
- TGI (MOLT-4 leukemia): 30.5 µM
- GI50 (NCI-H226 lung): 41.3 µM
- TGI (NCI-H226 lung): > 100 µM
- GI50 (NCI-H522 lung): 19.6 µM
- TGI (NCI-H522 lung): 75.5 µM
- GI50 (OVCAR-3 ovarian): 30.3 µM
- TGI (OVCAR-3 ovarian): > 100 µM
- GI50 (SF-295 CNS): 41.2 µM
- TGI (SF-295 CNS): > 100 µM
- GI50 (UACC-257 melanoma): 43.3 µM
- TGI (UACC-257 melanoma): > 100 µM
- GI50 (UO-31 renal): 23.6 µM
- TGI (UO-31 renal): 65.6 µM

SMILES: CCOc1ccc(NC(=O)c2cc3ccccc3cc2O)cc1
- GI50 (HCT-116 colon): 71.2 µM
- TGI (HCT-116 colon): > 100 µM
- GI50 (MCF7 breast): > 100 µM
- TGI (MCF7 breast): > 100 µM
- GI50 (MDA-MB-435): > 100 µM
- TGI (MDA-MB-435): > 100 µM
- GI50 (MOLT-4 leukemia): > 100 µM
- TGI (MOLT-4 leukemia): > 100 µM
- GI50 (NCI-H226 lung): 64.3 µM
- TGI (NCI-H226 lung): > 100 µM
- GI50 (NCI-H522 lung): 59.1 µM
- TGI (NCI-H522 lung): > 100 µM
- GI50 (OVCAR-3 ovarian): > 100 µM
- TGI (OVCAR-3 ovarian): > 100 µM
- GI50 (SF-295 CNS): 34.6 µM
- TGI (SF-295 CNS): > 100 µM
- GI50 (UACC-257 melanoma): > 100 µM
- TGI (UACC-257 melanoma): > 100 µM
- GI50 (UO-31 renal): 49.3 µM
- TGI (UO-31 renal): > 100 µM
